The test system of one assay is FosB. In words: Immunohistochemical staining of rat retina, FosB. Format: in vivo. The settings on record: lasered rat retinas. The text has this:
Rat choroidal laser injury model. Male Brown Norway pigmented rats (8-14 week-old) were anesthetized by an intramuscular injection of Rompun® (xylazine)/Imalgene® (ketamine). Pupils were dilated by instillation of one drop of 0.5% tropicamide before laser burn. Six burns were created in both eyes on Day 0 by applying 170 mW of 532 nm laser light (Viridis laser, Quantel, France) on 75 μm spots around the optic nerve, between the main retinal vessel branches, for 0.1s, through the slit lamp and contact lens. Production of a bubble at the time of laser application confirmed the rupture of Bruch's membrane. […] After anaesthesia, 10% sodium fluorescein (250 μl/100 g body weight) was injected subcutaneously, and ocular fluorescence was recorded 10 min after dye injection. Fluorescein leakage was evaluated on Days 14 and 21 in the angiograms by two examiners masked to the study groups and graded for fluorescein intensity as follows: score 0: no leakage; 1: slightly stained; 2: moderately stained; 3: strongly stained.
Immunohistochemical staining of rat retina. […] IOD of positive staining (red chromogen) was assessed for CD31, VEGF-A165, pERK, FosB and VCAM-1 using Image-Pro Plus software (Cybernetics, Bethesda, MD). IOD in IPL and INL was quantified for CD31; OPL to OS for VEGF-A165; INL to ONL for pERK; GCL to OS for FosB; OLM for VCAM-1, using Image-Pro Plus. […]

The test system of a further assay is genes induced by IL-1β. In words: RNA-seq of IL-1β-treated HMEC-1. As to conditions: 30 μM, 20 ng/ml IL-1β 4 h. Format: cell-based, human. As to the method: RNA-seq. HMEC-1 were seeded into nine 100 mm petri dishes with complete MCDB131 medium containing 10% FBS. At 70-80% confluency, cells were growth-arrested with serum-free MCDB131 medium with no hydrocortisone or EGF for 44 h. Cells were pre-treated with 30 μM BT2 in the same medium for 4 h then stimulated with 20 ng/mL IL-1β for a further 4 h. Total RNA was extracted using RNeasy Mini Kit (Qiagen, Amtsgericht Dusseldorf) with modification. Briefly, cells were washed twice with pre-cooled 1×PBS and TRIzol (Thermo Fisher Sci, Waltham, MA) was added to lyze the cells. Chloroform was added to the mixture prior to centrifugation at 13000 rpm for 15 min at 4° C. Upper aqueous layer containing total RNA was transferred to fresh microtubes and isopropanol was added and loaded into RNeasy column. Columns were washed with Buffers RW1 and RPE. Total RNA was eluted from the column using RNAse-free water. Samples were submitted to The Ramaciotti Centre for Genomics (UNSW, Australia) for TruSeq Stranded mRNA-seq preparation and sequencing by One NextSeq 500 1×75 bp High Output flowcell with data output up to 400M reads. Quality control of samples was set at >80% higher than Q30 at 1×75 bp.
RNA-seq reads were first assessed for quality using the tool FastQC (v0.11.8) (On the World-Wide-Web at: bioinformatics.babraham.ac.uk/projects/fastqc/). The tool Salmon was used for quantifying transcript abundance from RNA-seq reads (Patro, R., et al., Nat Methods 14, 417-419 (2017)). The R package DESeq2 (Love, M. I., et al., Genome Biol 15, 550 (2014)) that incorporates a method for differential analysis of count data was then used to identify differentially expressed genes across specific comparisons. The heatmap.2 function from the R package gplots v3.0.1.1 was used to generate heatmaps using counts per million (cpm) values for sets of genes of interest. The database for annotation, visualization and integrated discovery (DAVID) (Jiao, X., et al., Bioinformatics 28, 1805-1806 (2012)), a web-based online bioinformatics resource was used to identify the gene ontologies such as biological processes (BP) found to be enriched for lists of differentially expressed genes for specific comparisons.

Regarding `CCOC(=O)Nc1ccc2c(c1)C(=O)N(CC)c1ccccc1O2` [BT2, (10-ethyl-11-oxo-10,11-dihydro-dibenzo[b,f][1,4]oxazepin-2-yl)-carbamic acid ethyl ester], the “retinal FosB immunostaining” value in the assay on FosB was “inhibited retinal FosB immunostaining”. In addition, in the assay with genes induced by IL-1β, the “IL-1β-inducible FosB and VCAM-1 expression (RNA-seq)” value was “suppress IL-1β-inducible FosB and VCAM-1 expression”; the “expression of other regulatory genes including ICAM-1, CXCL2, KLF5, Egr-1 and Fos (RNA-seq)” value is on record as “inhibited a range of other regulatory genes”; the “number of the 325 IL-1β-induced genes (log FC≥2) inhibited (log FC≥2)” value came to 89; the “proportion of the 325 IL-1β-induced genes inhibited” value is reported as 27.5%.

(Values after patent publication US20260102407A1, “TREATMENT METHODS” (priority 2020, published 2026).)
